Earlier results in patent US11351213B2, “Composition for the prevention and/or treatment of respiratory tract disorders” (NEILOS S.R.L., priority 2017, dated 2022).

Columns and labels:
[1] = not given; remark: listed apart in the source
[2] = tested on: COPD patients
[3] = tested on: patients affected by COPD; conditions: HIACE study
[4] = COPD patients under treatment for six months

In the case of `O[C@H]1CCN2Cc3ccccc3N=C12` [vasicine], the “activity on bronchi in vitro” value is given as “bronchodilating activity” and the “activity on bronchi in vivo” value [1] is given as “bronchodilating activity”.
In the case of `CC(=O)N[C@@H](CS)C(=O)O` [NAC, N-acetyl-L-cysteine], the “reduction of days of malaise” value ([2]; COPD) is given as 0.56 days/month, the “reduction of exacerbations of the pathology” value ([2]; COPD) is given as 0.07 exacerbations/month and the “reduction of hospitalisations for COPD” value ([2]; COPD) is given as 30%. For the same molecule, the “FEV1 (forced expiratory volume at the first second)” value [2, 4] was “significant increase”, the maximum expiratory flow [2, 4] was “significant increase” and the FEV1 ([2]; after a brief therapy of 4 weeks) was “from 25% to 30%”. The exacerbations ([3]; COPD, reduction from 1.71 times a year) was 0.96 times a year and the forced expiratory flow ([3]; patients affected by COPD) was “rose from 25% to 75%”.
In the case of `O=c1c2ccccc2nc2n1CC[C@@H]2O` [Vasicinone, vasicinone], the “activity on bronchi in vitro” value is listed as “bronchodilating activity” and the “activity on bronchi in vivo” value [1] is listed as “bronchoconstricting activity”.
